In patent US6235777A, “Benzenesulfonamide compounds” (Ono Pharmaceutical Co., Ltd., priority 1997, dated 2001) one finds Ki data, which are given here for 19 molecules.

For one assay, the target named is T1, mouse EP1 (Mus musculus, UniProt P35375).
T1 construct: expressed in transfected cells; host or cells: CHO
T1 sequence (P35375 1-405): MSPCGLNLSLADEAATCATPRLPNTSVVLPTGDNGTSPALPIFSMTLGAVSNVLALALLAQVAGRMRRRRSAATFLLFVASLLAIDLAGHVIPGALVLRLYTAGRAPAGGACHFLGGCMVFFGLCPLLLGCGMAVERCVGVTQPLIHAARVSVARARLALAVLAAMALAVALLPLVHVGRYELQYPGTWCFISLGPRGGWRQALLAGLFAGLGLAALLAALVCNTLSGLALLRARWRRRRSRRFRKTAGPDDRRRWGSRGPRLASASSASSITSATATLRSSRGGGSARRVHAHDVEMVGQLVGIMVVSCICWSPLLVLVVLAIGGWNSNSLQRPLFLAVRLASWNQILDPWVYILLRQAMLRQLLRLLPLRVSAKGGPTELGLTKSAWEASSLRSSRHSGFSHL
The assay can be described thus: Binding assay using expression cell of prostanoid receptor subtype (EP1; competition of specific 3H-PGE2 binding to CHO cell membrane fraction). The note with it: Table 1, 3H-PGE2 2.5 nM, 1 hour, room temperature, pH6.0, read-out: dissociation constant to receptor subtype, Ki (EP1), present invention compounds. The protocol: (§1) (i) Binding Assay Using Expression Cell of Prostanoid Receptor Subtype
(§2) The standard assay mixture contained membrane fraction (0.5 mg/ml), ^3 H-PGE2 in a final volume of 200 microliter was incubated for 1 hour at room temperature. The reaction was terminated by addition of 3 ml of ice-cold buffer. The mixture was rapidly filtered through a glass filter (GF/B). The radioactivity associated with the filter was measured by liquid scintillation counting.
(§3) Non-specific binding was calculated as the binding in the presence of an excess (2.5 microM) of unlabeled PGE2. […] The following buffer was used in all reaction. Buffer:potassium phosphate (pH6.0, 10 mM), EDTA (1 mM), MgCl2 (10 mM), NaCl (0.1M).
(§4) The dissociation constant Ki (microM) of each compound was calculated by the following equation.

In the next assay the target is T2, mouse EP3 (Mus musculus, UniProt P30557).
T2 construct: expressed in transfected cells; host or cells: CHO
T2 sequence (P30557 1-365): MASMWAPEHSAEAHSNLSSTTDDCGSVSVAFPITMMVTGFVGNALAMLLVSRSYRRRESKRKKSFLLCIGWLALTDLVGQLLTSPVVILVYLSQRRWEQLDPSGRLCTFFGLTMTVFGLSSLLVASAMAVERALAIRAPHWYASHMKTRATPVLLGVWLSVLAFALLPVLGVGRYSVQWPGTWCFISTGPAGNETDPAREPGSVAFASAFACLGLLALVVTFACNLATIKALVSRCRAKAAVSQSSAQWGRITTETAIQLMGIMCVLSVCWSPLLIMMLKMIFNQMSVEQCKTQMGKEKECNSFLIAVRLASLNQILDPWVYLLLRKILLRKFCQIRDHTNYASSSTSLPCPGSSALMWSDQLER
The assay can be described thus: Binding assay using expression cell of prostanoid receptor subtype (EP3; competition of specific 3H-PGE2 binding to CHO cell membrane fraction). The note with it: Table 1, 3H-PGE2 2.5 nM, 1 hour, room temperature, pH6.0, read-out: dissociation constant to receptor subtype, Ki (EP3), present invention compounds. As for the experimental part: as §1, §2, §3, §4

The Ki is a measure of affinity in units of concentration, obtained from inhibition or displacement.

With `Cc1cc(Cl)ccc1S(=O)(=O)NC[C@H]1C2CCC(CC2)[C@@H]1/C=C\CCCC(=O)O` [Example 2(c), 6-[(2S, 3S)-3-(4-chloro-2-methylphenylsulfonylaminomethyl)bicyclo[2.2. 2]octan-2-yl]-5Z-hexenoic acid], the figures for the Ki on mouse EP1 and on mouse EP3 were 1.8 nM and 200 nM, respectively.
In the case of `Cc1cc(Br)ccc1S(=O)(=O)NC[C@H]1C2CCC(CC2)[C@H]1/C=C\CCCC(=O)O` [Example 2(d), 6-[(2S, 3S)-3-(4-bromo-2-methylphenylsulfonylaminomethyl)bicyclo[2.2. 2]octan-2-yl]-5Z-hexenoic acid], the figures for the Ki at mouse EP1 and on mouse EP3 were 1.4 nM and 85 nM, respectively.
In the same order, the values of `O=C(O)CCC/C=C\[C@@H]1C2CCC(CC2)[C@@H]1CNS(=O)(=O)c1c(Cl)cc(Cl)cc1Cl` [Example 2(g), 6-[(2S, 3S)-3-(2,4,6-trichlorophenylsulfonylaminomethyl)bicyclo[2.2. 2]octan-2-yl]-5Z-hexenoic acid] are 3.4 nM and 950 nM.
On to `Cc1cc(Cl)cc(Cl)c1S(=O)(=O)NC[C@H]1C2CCC(CC2)[C@H]1/C=C\CCCC(=O)O` [Example 2(k), 6-[(2S, 3S)-3-(2,4-dichloro-6-methylphenylsulfonylaminomethyl)bicyclo[2.2. 2]octan-2-yl]-5Z-hexenoic acid], for which the inhibitory constant (Ki) amounted to 2.4 nM at mouse EP1 and 1400 nM at mouse EP3.
As to `Cc1cc(Cl)ccc1S(=O)(=O)NC[C@H]1C2CCC(CC2)[C@H]1/C=C/CCCC(=O)O` [Example 2(n), 6-[(2S, 3S)-3-(4-chloro-2-methylphenylsulfonylaminomethyl)bicyclo[2.2. 2]-octan-2-yl]-5E-hexenoic acid], the inhibitory constant (Ki) at mouse EP1 amounted to 5.1 nM; at mouse EP3, 1900 nM.
Regarding `O=C(O)CCC/C=C\[C@@H]1C2CCC(CC2)[C@@H]1CNS(=O)(=O)c1ccc(Cl)cc1Cl` [Example 2, 6-[(2S, 3S)-3-(2,4-dichlorophenylsulfonylaminomethyl)bicyclo[2.2. 2]octan-2-yl]-5Z-hexenoic acid], the Ki stood at 0.5 nM at mouse EP1 and 120 nM on mouse EP3.
With `O=C(O)CCC/C=C\[C@H]1CCCC[C@@H]1CNS(=O)(=O)c1ccc(Cl)cc1Cl` [Example 3(a), 6-[(1R, 2S)-2-(2,4-dichlorophenylsulfonylaminomethyl)cyclohexyl]-5Z-hexenoic acid], the inhibition constant (Ki) stood at 3.1 nM at mouse EP1 and 18 nM at mouse EP3.
The like results for `O=C(O)CCC/C=C\[C@H]1CCCC[C@@H]1CNS(=O)(=O)c1c(Cl)cc(Cl)cc1Cl` [Example 3(e), 6-[(1R, 2S)-2-(2,4,6-trichlorophenylsulfonylaminomethyl)cyclohexyl]-5Z-hexenoic acid] were, in that order, 8.4 nM and 110 nM.
As for `Cc1cc(Cl)ccc1S(=O)(=O)NC[C@H]1CCCC[C@@H]1/C=C\CCCC(=O)O` [Example 3(f), 6-[(1R, 2S)-2-(4-chloro-2-methylphenylsulfonylaminomethyl)cyclohexyl]-5Z-hexenoic acid], the Ki on mouse EP1 was 1.1 nM; on mouse EP3, 41 nM.
`Cc1cc(Cl)ccc1S(=O)(=O)NC[C@H]1CC=CC[C@@H]1/C=C\CCCC(=O)O` [Example 4(b), 6-[(4R, 5S)-5-(4-chloro-2-methylphenylsulfonylaminomethyl)cyclohexen-4-yl]-5Z-hexenoic acid]: the inhibitory constant (Ki) at mouse EP1 stood at 17 nM; on mouse EP3, 52 nM.
Turning to `O=C(O)CCC/C=C\[C@H]1CC=CC[C@@H]1CNS(=O)(=O)c1ccc(Cl)cc1F` [Example 4(c), 6-[(4R, 5S)-5-(4-chloro-2-fluorophenylsulfonylaminomethyl)cyclohexen-4-yl]-5Z-hexenoic acid], the figures for the Ki at mouse EP1 and at mouse EP3 were 39 nM and 180 nM, respectively.
On to `Cc1cc(Br)ccc1S(=O)(=O)NC[C@H]1CC=CC[C@@H]1/C=C\CCCC(=O)O` [Example 4(f), 6-[(4R, 5S)-5-(4-bromo-2-methylphenylsulfonylaminomethyl)cyclohexen-4-yl]-5Z-hexenoic acid], for which the figures for the Ki on mouse EP1 and at mouse EP3 were 5.7 nM and 12 nM, respectively.
Regarding `O=C(O)CCC/C=C\[C@@H]1[C@@H]2CC[C@@H](C2)[C@@H]1CNS(=O)(=O)c1ccc(Cl)cc1Cl` [Example 5(a), 6-[(1R, 2S, 3S, 4S)-3-(2,4-dichlorophenylsulfonylaminomethyl)bicyclo[2.2. 1]-heptan-2-yl]-5Z-hexenoic acid], the Ki on mouse EP1 amounted to 12 nM; on mouse EP3, 280 nM.
As to `O=C(O)CCC/C=C\[C@@H]1[C@@H]2CC[C@@H](C2)[C@@H]1CNS(=O)(=O)c1ccc(Cl)cc1F` [Example 5(d), 6-[(1R, 2S, 3S, 4S)-3-(4-chloro-2-fluorophenylsulfonylaminomethyl)bicyclo[2.2. 1]heptan-2-yl]-5Z-hexenoic acid], the inhibitory constant (Ki) at mouse EP1 stood at 23 nM; on mouse EP3, 1200 nM.
On to `Cc1cc(Cl)ccc1S(=O)(=O)NC[C@H]1[C@H]2CC[C@H](C2)[C@H]1/C=C\CCCC(=O)O` [Example 5(e), 6-[(1R, 2S, 3S, 4S)-3-(4-chloro-2-methylphenylsulfonylaminomethyl)bicyclo[2.2. 1]heptan-2-yl]-5Z-hexenoic acid], for which the Ki at mouse EP1 is 7.2 nM; at mouse EP3, 200 nM.
In the same order, the values of `O=C(O)CCC/C=C\[C@@H]1[C@@H](CNS(=O)(=O)c2ccc(Cl)cc2Cl)[C@@H]2C=C[C@H]1CC2` [Example 6(a), 6-[(1S, 4R, 5S, 6S)-6-(2,4-dichlorophenylsulfonylaminomethyl)bicyclo[2.2. 2]-oct-2-en-5-yl]-5Z-hexenoic acid] are 3.9 nM and 370 nM.
For `Cc1cc(Cl)cc(C)c1S(=O)(=O)NC[C@@H]1[C@@H](/C=C\CCCC(=O)O)[C@H]2C=C[C@@H]1CC2` [Example 6(e), 6-[(1S, 4R, 5S, 6S)-6-(4-chloro-2,6-dimethylphenylsulfonylaminomethyl)bicyclo[2.2. 2]oct-2-en-5-yl]-5Z-hexenoic acid], the inhibition constant (Ki) on mouse EP1 was 4.2 nM; at mouse EP3 it was 1100 nM.
On to `O=C(O)CCC/C=C\[C@@H]1[C@@H](CNS(=O)(=O)c2ccc(Cl)cc2F)[C@H]2C=C[C@@H]1CC2` [Example 7(d), 6-[(1R, 4S, 5S, 6S)-6-(4-chloro-2-fluorophenylsulfonylaminomethyl)bicyclo[2.2. 2]oct-2-en-5-yl]-5Z-hexenoic acid], for which the Ki amounted to 3.9 nM on mouse EP1 and 1400 nM at mouse EP3.
In the case of `O=C(O)CCC/C=C\[C@@H]1[C@@H](CNS(=O)(=O)c2c(Cl)cc(Cl)cc2Cl)[C@H]2C=C[C@@H]1CC2` [Example 7(f), 6-[(1R, 4S, 5S, 6S)-6-(2,4,6-trichlorophenylsulfonylaminomethyl)bicyclo[2.2. 2]oct-2-en-5-yl]-5Z-hexenoic acid], the inhibition constant (Ki) on mouse EP1 stood at 7.2 nM; on mouse EP3 it was 1500 nM.
